These results are taken from ChEMBL document CHEMBL1201862, “PubChem BioAssay data set” (2004).

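Assay format: 96-well plates, 48-hour exposure. Abbreviation: GI50, concentration required for 50% inhibition of growth.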 The source made the active and inactive calls. Rule as the data show it: active = GI50 up to about 1.1 µM and inactive = higher. Where only a bound is given, the exact number is not on record here.

Some test systems named below: UO-31; NCI-H522; HL-60; SF-268; DMS-273; HCC 2998; SW-620; SN12C; TK-10; OVCAR-8; EKVX; RPMI-8226; Hs-578T; NCI/ADR-RES; DU-145; OVCAR-4; CAKI-1; BT-549; HOP-92; T47D.
Assay in all cases: NCI-60 cell line screen, 48 h

Turning to `CCCCc1c2c([n+]([O-])c3c1CCCC3)CCCC2`, the GI50 with UO-31 is 61.1 µM (inactive); in the assay on NCI-H522, 2 µM (inactive); with HL-60, 38.1 µM (inactive); with SF-268, 66.4 µM (inactive); in the assay with DMS-273, 96.6 µM (inactive); in the assay on HCC 2998, > 100 µM (inactive). In addition, the GI50 in the assay with SW-620 was > 100 µM (inactive); in the assay on SN12C, > 100 µM (inactive); in the assay on TK-10, > 100 µM (inactive); in the assay with OVCAR-8 it was > 100 µM (inactive); in the assay on EKVX, > 100 µM (inactive); in the assay with RPMI-8226 it was 50.8 µM (inactive).
Consider `CCCC(=O)OCC1OC(n2cc(F)c(=O)[nH]c2=O)CC1OC(=O)CCC` (stereo not drawn), for which the GI50 with UO-31 is 0.13 µM (active); in the assay on NCI-H522 it was 5.22 µM (inactive); in the assay with Hs-578T, 2.32 µM (inactive); in the assay with HL-60, 0.247 µM (active); with NCI/ADR-RES it was 1.55 µM (inactive); in the assay with SF-268 it was 0.0368 µM (active). Also, the GI50 is 0.156 µM (active) in the assay with DU-145; 0.0113 µM (active) in the assay on HCC 2998; > 10 µM (inactive) in the assay with SW-620; > 10 µM (inactive) in the assay on OVCAR-4; 0.183 µM (active) with CAKI-1; 0.346 µM (active) in the assay with SN12C. Besides, the GI50 is 2.25 µM (inactive) in the assay with TK-10; 0.203 µM (active) with OVCAR-8; > 10 µM (inactive) in the assay on EKVX; 0.376 µM (active) in the assay on BT-549; 0.509 µM (active) in the assay on HOP-92; > 6.15 µM (inactive) in the assay on T47D. Further, the GI50 in the assay on RPMI-8226 was 0.973 µM (active).
As for `Cc1n[nH]c(=S)n(C)c1=S`, the GI50 in the assay with UO-31, with NCI-H522, in the assay with SF-268, with DMS-273, in the assay on SW-620 and in the assay on OVCAR-4 was > 100 µM (inactive) in each case. Besides, the GI50 with SN12C is > 100 µM (inactive); in the assay with TK-10, > 100 µM (inactive); with OVCAR-8 it was > 100 µM (inactive); with EKVX it was 56.1 µM (inactive); in the assay with HOP-92, 91.2 µM (inactive); in the assay on RPMI-8226 it was > 100 µM (inactive).
Turning to `N#Cc1c(C[n+]2ccccc2)c2ccccc2oc1=O`, the GI50 in the assay with UO-31, in the assay with NCI-H522, with SF-268, in the assay with DMS-273, in the assay on HCC 2998 and with SW-620 was > 100 µM (inactive) throughout. Besides, the GI50 in the assay on OVCAR-4 was 22.7 µM (inactive); in the assay with CAKI-1, > 100 µM (inactive); with SN12C, > 100 µM (inactive); with OVCAR-8, > 100 µM (inactive); in the assay with EKVX it was > 100 µM (inactive); with RPMI-8226, > 100 µM (inactive).
As to `CN(C)C(=S)/N=c1\ssc(=S)n1Cc1ccncc1`, the GI50 was 15.5 µM (inactive) in the assay with UO-31; 1.49 µM (inactive) in the assay on NCI-H522; 24.3 µM (inactive) with SF-268; 16.4 µM (inactive) with DMS-273; 21.1 µM (inactive) in the assay with HCC 2998; 16.5 µM (inactive) in the assay on SW-620. The GI50 with OVCAR-4 is 20 µM (inactive); in the assay with CAKI-1 it was 18.9 µM (inactive); with SN12C, > 100 µM (inactive); in the assay on TK-10, 25 µM (inactive); in the assay with OVCAR-8, 23.1 µM (inactive); in the assay on EKVX, 22.8 µM (inactive).
`CC1=C(c2nc3ccccc3s2)C(=O)OC1(C)C`: the GI50 in the assay with UO-31, in the assay on NCI-H522, in the assay with SF-268, with DMS-273, with HCC 2998 and in the assay on SW-620 was > 100 µM (inactive) throughout. The GI50 with OVCAR-4, in the assay on CAKI-1, with SN12C, with OVCAR-8, in the assay on EKVX and with RPMI-8226 was > 100 µM (inactive) in each case.
On to `O=C(O)C1=CN(c2ccncc2)C(c2ccco2)=CC1c1ccccc1[N+](=O)[O-]` (stereo not drawn), for which the GI50 was 10.4 µM (inactive) in the assay on UO-31; 3.22 µM (inactive) in the assay on NCI-H522; 14.4 µM (inactive) in the assay on Hs-578T; 3.19 µM (inactive) in the assay with HL-60; 22.9 µM (inactive) in the assay with NCI/ADR-RES; 5.71 µM (inactive) in the assay with SF-268. Further, the GI50 in the assay with DU-145 was 13.5 µM (inactive); in the assay with HCC 2998, 1.82 µM (inactive); in the assay with SW-620, 10.2 µM (inactive); in the assay on OVCAR-4 it was 13.9 µM (inactive); in the assay on CAKI-1, 16.5 µM (inactive); with SN12C it was 13.6 µM (inactive). In addition, the GI50 in the assay on TK-10 is 6.17 µM (inactive); in the assay with OVCAR-8, 17.3 µM (inactive); in the assay on EKVX it was 6.58 µM (inactive); in the assay on BT-549 it was 12.1 µM (inactive); with HOP-92 it was 11.9 µM (inactive); with T47D, 10.6 µM (inactive). Further, the GI50 with RPMI-8226 was 2.67 µM (inactive).
Consider `O=C(NCCNCCO)c1cccc2ccc(-c3ccccc3)nc12`, for which the GI50 was 3.44 µM (inactive) in the assay on UO-31; 3.17 µM (inactive) in the assay with HL-60; 6.53 µM (inactive) in the assay on SF-268; 3.86 µM (inactive) in the assay on DMS-273; 5.01 µM (inactive) in the assay with HCC 2998; 3.15 µM (inactive) with SW-620. In addition, the GI50 with OVCAR-4 is 6.5 µM (inactive); with CAKI-1 it was 3.38 µM (inactive); in the assay with SN12C, 3.97 µM (inactive); with TK-10, 1.44 µM (inactive); in the assay with OVCAR-8 it was 4.42 µM (inactive); in the assay on EKVX, 5.94 µM (inactive). For the same molecule, the GI50 with HOP-92 was 3.18 µM (inactive).
With `CC(OCc1ccccc1)C(NC(=O)C1CSSCC(NC(=O)C(Cc2ccccc2)NC(=O)OCc2ccccc2)C(=O)NC(Cc2ccccc2)C(=O)NC(Cc2cn(C=O)c3ccccc23)C(=O)NC(CCCCNC(=O)OCc2ccccc2)C(=O)NC(C(C)OCc2ccccc2)C(=O)N1)C(N)=O` (stereo not drawn), the GI50 with UO-31 is 78.3 µM (inactive); in the assay with NCI-H522 it was 17.4 µM (inactive); with Hs-578T, > 74.8 µM (inactive); in the assay with HL-60, 0.977 µM (active); in the assay on NCI/ADR-RES it was > 100 µM (inactive); in the assay on SF-268 it was > 61.8 µM (inactive). Moreover, the GI50 was 30.5 µM (inactive) with DU-145; 7.43 µM (inactive) in the assay on HCC 2998; 13.4 µM (inactive) in the assay on SW-620; > 43.5 µM (inactive) with OVCAR-4; 46 µM (inactive) in the assay with CAKI-1; > 100 µM (inactive) in the assay with SN12C. For the same molecule, the GI50 in the assay with TK-10 is 33.7 µM (inactive); in the assay with OVCAR-8 it was 75.2 µM (inactive); in the assay on EKVX, > 83.2 µM (inactive); in the assay on BT-549, 21.2 µM (inactive); with HOP-92 it was 38.3 µM (inactive); in the assay on T47D it was 13.3 µM (inactive). Further, in the assay with RPMI-8226, the GI50 was 5.04 µM (inactive).
With `COc1ccc(N2C(=O)C3CC(c4ccc(Br)cc4)c4c([nH]c5ccccc45)C3C2=O)cc1` (stereo not drawn), the GI50 is 11 µM (inactive) in the assay with UO-31; 12.8 µM (inactive) in the assay on HL-60; 6.78 µM (inactive) in the assay on SF-268; 6.41 µM (inactive) in the assay with DMS-273; 5.81 µM (inactive) in the assay on SW-620; 3.25 µM (inactive) in the assay with OVCAR-4. Further, the GI50 in the assay on CAKI-1 is 15.1 µM (inactive); with SN12C, 3.93 µM (inactive); in the assay on TK-10, 7.1 µM (inactive); in the assay with OVCAR-8, 2.13 µM (inactive); in the assay with EKVX, 16.9 µM (inactive); with HOP-92 it was 12.3 µM (inactive). For the same molecule, the GI50 with RPMI-8226 was 26.7 µM (inactive).
